Measured values published in patent publication US5157052A, “Method for inhibiting IgE production” (priority 1990, dated 1992).

Test system: IgE
Assay: Secondary antigen-specific IgE response to TNP-KLH on alum
Format: in vivo, mouse (Balb/c female)
Details: 20 μg IP 3x daily days 24 and 25
Experimental: ELISA (enzyme linked immunosorbant assay) measurements of IgE are as follows. About 5 μg of B1E3 antibody in 100 μl borate buffered saline (pH8.5) is added to wells of a NuncImmulon II 96 well plate (DiRuscio & Assoc., St. Louis, Mo.) at 37° C. for 90 minutes. The non-bound antibody is removed by flicking the plate. Unreacted sites on the plastic plate are blocked by adding about 200 μl of a 2% solution of newborn bovine serum (NBS) in PBS at 37° C. for 60 minutes. The standard IgE (or an unknown murine serum sample) is diluted to between about 4 ng/ml-256 ng/ml in Hanks-HS (20 mM Hepes, 2% NBS in Hanks Balanced Salt Solution, Gibco, Grand Island, N.Y.) or to 1/200 to 1/1000 in Hanks-HS respectively. 100 μl of standard (or unknown dilutions) are added in triplicate to the wells of the plate and allowed to absorb to B1E3 antibody at about 37° C. for 2-4 hours. The solution is removed by flicking the plate and each well is washed with about 0.5 ml 0.05% Tween 20-PBS 5 times. About 100 μl of biotinylated R1E4, called the primary antibody, diluted to 200 ng/ml is added to all wells and incubated at about 4° C. overnight. The solution is removed by flicking the plate and washed 5 times as described above. The developing reagent (Avidin and biotin-horse radish peroxidase) is incubated in 2% NBS in PBS at ambient temperature for 30 minutes, according to manufacturer's specifications (Vector Laboratories, Burlingame, Calif.). About 100 μl of developing reagent is added to each well and incubated at ambient temperature for 30 minutes. Colorimetric substrate for the developing reagent (ABTS peroxidase substrate system, KPL, Gaithersburg, Md.) is prepared by mixing equal volumes of solutions A and B and incubating at ambient temperature for 60 minutes. The developing reagent solution is removed by flicking the plate and washed 5 times as described above. About 100 μl of the mixture of substrates is added to each well and incubated at ambient temperature for 60 minutes. The optical density of each well is determined on a BioTek ELISA reader (Biotek Instruments, Inc., Burlington, Vermont) and the absorbance data transferred electronically to a DEC VAX mainframe computer. A standard curve is fitted to the IgE standard optical densities using straight line, linear regression statistical fits. IgE in the unknown serum samples is determined by comparing the optical density of the unknown to the standard curve and multiplying that number by the dilution of serum used in the assay.
Stimulation of a secondary antigen-specific IgE response in mouse with haptenated antigen absorbed on alum is inhibited by (±) methyl 11α,16-dihydroxy-16-methyl-9-oxoprosta-5Z,13E-dien-1-oate. Three groups of 7 Balb/c female mice were treated as follows. […]

For `CCCCC(C)(O)C/C=C/[C@H]1[C@H](O)CC(=O)[C@@H]1C/C=C\CCCC(=O)OC` (mixture of isomers) [(±) methyl 11α,16-dihydroxy-16-methyl-9-oxoprosta-5Z,13E-dien-1-oate], the “secondary IgE response” value was “inhibited from the synthesis of a secondary IgE response”, the “IgE ± SD” value (day 28, p < .02 (boosted control 28,568)) was 14,448 ± 4926 ng/ml and the “IgE ± SD” value (day 30, p < .016 (boosted control 22,564)) was 7564 ± 1528 ng/mL. The “IgE ± SD” value (day -1 baseline before treatment) was 1487 ± 138 ng/mL.
